Test results reported in patent US20260001928A1 (CORTERIA PHARMACEUTICALS, priority 2022, published 2026).
*1 amine or outer side, *2 acyl side, *3 side chain or, on linkers, in order; H or OH if unused. Where a SMILES comes first, the peptide text is derived from it. Side-chain parts run from the residue outwards. [ ]: non-standard residue; d: D form. The star is where a group is joined. C20 diacid = O=C(O)CCCCCCCCCCCCCCCCCCC(=O)*; γGlu = O=C(O)[C@H](CCC(=O)[*:2])N[*:1]; NMeI = CC[C@H](C)[C@H](NC)C(=O)O; AEEA = NCCOCCOCC(=O)O; Aib = CC(C)(N)C(=O)O

Columns and labels:
[1] = tested on: Sprague Dawley rats; assay: Effect on systolic blood pressure, telemetry in Sprague Dawley rats; assay type: in vivo, rat; details: 0.1 mg/kg SC; for Systolic blood pressure (Mean) % change from baseline, 8 h / Systolic blood pressure (Mean) % change from baseline, 12 h / Systolic blood pressure (Mean) % change from baseline, 24 h: n=2; for Duration of action: last time point with an effect on BP still observed
Method in brief: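 Sprague Dawley rats with abdominal-aorta telemetry catheters, recovered ≥10 days, received 0.1 mg/kg SC of compound or vehicle. Systolic pressure recorded 1 h pre-dose as baseline, then continuously up to 48 hours, expressed as % change from baseline; duration of action is last time point with a BP effect (n=2).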

[2] = In vitro plasma stability, rat plasma; assay type: in vitro ADME; design: remaining at 2 h: dose or concentration left out as unconfirmed; details: male, Sprague Dawley, plasma; Rat PLM, 37° C.
Method: (§1) In vitro plasma metabolic stability was studied in male Sprague Dawley rats and human. Test compounds were incubated at 3 M for 2 hours at 37° C. At each time point (0, 0.25, 1 and 2 h), samples were prepared for analysis by means of a single step protein precipitation technique by adding 150 μL of ethanol, 0.1% formic acid to 50 μL aliquots of plasma. Samples were mixed by vortex for homogeneity and then subjected to centrifugation at 14000 rpm for 15 min. The supernatant (100 μL) was collected, diluted with 100 μL of water, 0.1% formic acid and analyzed by LC-HRMS (TripleTOF 6600+, AB Sciex). For each test compound, the area ratios at each time point were compared to the 0 h area ratio and converted to a percentage remaining.

[3] = In vitro plasma stability, human plasma; assay type: in vitro ADME; design: dose or concentration left out as unconfirmed; details: Human PLM, 37° C.
Method: as §1

[4] = Chemical stability in buffer (pH 7.4 / pH 4.5), % purity loss; assay type: physicochemical; details: 100 mM phosphate buffer pH 7.4; 40° C. vs 5° C.; 14 or 28 days
Method in brief: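 Compounds dissolved at 10 mg/mL target in 100 mM phosphate (pH 7.4) or 100 mM acetate (pH 4.5) buffer for 1 h at room temperature, then centrifuged. Diluted supernatant stored at 5 °C or 40 °C for 14 or 28 days; % purity loss by LC-UV.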

[5] = target: T1, human CRF2a receptor (Homo sapiens, UniProt Q13324); assay: Activity at human CRF2a receptor, cAMP functional assay in TeloHEAC cells; assay type: cell-based; details: TeloHEAC cells stably expressing human CRF2a receptor, relative to urocortin 2 (100 nM = 100%)
T1 construct: expressed in transfected cells; host or cells: TeloHEAC cells
T1 sequence (Q13324 1-411): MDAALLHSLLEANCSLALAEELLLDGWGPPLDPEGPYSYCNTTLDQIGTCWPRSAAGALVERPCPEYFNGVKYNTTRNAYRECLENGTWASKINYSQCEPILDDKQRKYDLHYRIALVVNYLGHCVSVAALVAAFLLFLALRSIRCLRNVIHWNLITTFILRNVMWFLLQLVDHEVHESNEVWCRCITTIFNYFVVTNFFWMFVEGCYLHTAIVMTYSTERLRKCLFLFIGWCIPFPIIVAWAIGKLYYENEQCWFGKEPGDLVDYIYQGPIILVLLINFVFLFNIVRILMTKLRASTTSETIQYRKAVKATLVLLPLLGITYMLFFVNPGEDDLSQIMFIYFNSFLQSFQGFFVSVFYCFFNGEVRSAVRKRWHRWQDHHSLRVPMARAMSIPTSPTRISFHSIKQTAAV
Method in brief: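 TeloHEAC cells stably expressing human CRF2a (10000 cells/well) were treated with 16-point 1:2 compound dilutions in HBSS/20 mM HEPES with IBMX for 30 min at 37° C. cAMP was read by HTRF (665/620 nm ratio). EC50 was the concentration giving 50% activation, with 100 nM urocortin 2 set as 100%.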

[6] = In vitro subcutaneous tissue supernatant (SCts) stability and metabolite identification, rat; assay type: in vitro ADME; design: remaining at 2 h: dose or concentration left out as unconfirmed; details: male, Sprague Dawley; rat subcutaneous tissue supernatant (SCts), 37° C, 2 h
[7] = target: T2, CFR1R receptor (Homo sapiens, UniProt P34998); assay: Activity at anti-target CFR1R receptor, cAMP assay in CRF1R-overexpression CHO-K1 cells; assay type: cell-based; details: 100% = Sauvagine at 100 nM; for EC50: cAMP
T2 construct: host or cells: CHO-K1 (clone 2)
T2 sequence (P34998 24-415): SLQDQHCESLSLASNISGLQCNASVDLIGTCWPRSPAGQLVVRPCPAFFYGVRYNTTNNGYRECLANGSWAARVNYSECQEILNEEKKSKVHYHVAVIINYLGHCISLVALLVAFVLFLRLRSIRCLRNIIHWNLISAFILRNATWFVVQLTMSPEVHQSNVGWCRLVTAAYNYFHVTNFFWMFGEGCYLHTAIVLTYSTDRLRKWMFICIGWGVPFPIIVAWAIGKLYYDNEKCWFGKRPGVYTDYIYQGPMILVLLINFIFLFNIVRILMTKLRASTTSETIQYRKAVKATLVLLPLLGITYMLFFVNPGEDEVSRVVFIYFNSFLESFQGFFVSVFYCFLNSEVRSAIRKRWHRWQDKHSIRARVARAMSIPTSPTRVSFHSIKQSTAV
Method in brief: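 Run as for the TeloHAEC line, except the full-activation control well received Sauvagine (100 nM) and final density was 4000 cells/well. Cells from clone 2 came from frozen aliquots of near-confluent cultures.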

[8] = in vitro; design: dose or concentration left out as unconfirmed; details: dog, plasma
[9] = Pharmacokinetics in male Sprague Dawley rats after subcutaneous administration; assay type: in vivo; details: plasma, rat, IV, 0.05 mg/kg
[10] = subcutaneous tissue supernatant (SCts); details: male Sprague Dawley rats, 37° C., up to 2 hours
[11] = Human PLM; details: 37° C., up to 2 hours
[12] = Dog PLM; details: 37° C., up to 2 hours
[13] = Rat PLM; details: male Sprague Dawley rats, 37° C., up to 2 hours

Row | Compound | remaining at 2 h [2] [%] | remaining at 2 h [3] [%] | Buffer stability pH 7.4 % purity loss [4] | EC50 [5] [pM] | remaining at 2 h [6] [%] | Emax (% I) [7] [% I] | EC50 [7] [pM] | remaining at 2 h [8] [%] | AUC(0-t) [9] [ng·h/mL] | half-life [9] [h] | not cleaved [10] [% remaining at 2 h] | not cleaved [11] [% remaining at 2 hours] | percent remaining [12] [% remaining at 2 hours] | not cleaved [13] [% remaining at 2 hours] | Systolic blood pressure (Mean) % change from baseline, 8 h [1] [%] | Systolic blood pressure (Mean) % change from baseline, 12 h [1] [%] | Systolic blood pressure (Mean) % change from baseline, 24 h [1] [%] | Duration of action [1] [h]
1 | Ac-IVLSLDvPIKLK*KILLEQEKQKAibQREQAETNAibQILAQV-NH2 |  |  |  |  |  |  |  |  |  |  | 95 |  |  |  |  |  |  | 
2 | Ac-IVLSLDvPIKLK*KILLEQEKQKEQREQAETNAibQILAQV-NH2 |  |  |  |  |  |  |  |  |  |  |  | 99 | 102 | 99 |  |  |  | 
3 | NMeIVLSLDvPIKLK*KILLEQEKQKEQREQAETNAibQILAQV-NH2 [218] |  |  |  |  |  |  |  |  |  |  |  | 99 | 102 | 109 |  |  |  | 
4 | NMeIVLSLDvPIKLK*KILLEQEKQKEQREQAETNAibQILAQV-NH2 [233] |  |  |  |  |  |  |  |  |  |  |  | 100 | 99 | 106 |  |  |  | 

Second part, led by results:

Row | remaining at 2 h [2] [%] | remaining at 2 h [3] [%] | Buffer stability pH 7.4 % purity loss [4] | EC50 [5] [pM] | remaining at 2 h [6] [%] | Emax (% I) [7] [% I] | EC50 [7] [pM] | remaining at 2 h [8] [%] | AUC(0-t) [9] [ng·h/mL] | half-life [9] [h] | not cleaved [10] [% remaining at 2 h] | not cleaved [11] [% remaining at 2 hours] | percent remaining [12] [% remaining at 2 hours] | not cleaved [13] [% remaining at 2 hours] | Compound | Systolic blood pressure (Mean) % change from baseline, 8 h [1] [%] | Systolic blood pressure (Mean) % change from baseline, 12 h [1] [%] | Systolic blood pressure (Mean) % change from baseline, 24 h [1] [%] | Duration of action [1] [h]
5 | 99 | 99 | −0.1/Not Tested % | 220 | 74 | 27 | > 250000 | 102 |  |  |  |  |  |  | CC[C@H](C)[C@H](NC(C)=O)C(=O)N[C@H](C(=O)N[C@@H](CC(C)C)C(=O)N[C@@H](CO)C(=O)N[C@@H](CC(C)C)C(=O)N[C@@H](CC(=O)O)C(=O)N[C@@H](C(=O)N1CCC[C@H]1C(=O)N[C@H](C(=O)N[C@@H](CCCCN)C(=O)N[C@@H](CC(C)C)C(=O)N[C@@H](CCCCNC(=O)CC[C@H](NC(=O)CCCCCCCCCCCCCCCCCCC(=O)O)C(=O)O)C(=O)N[C@@H](CCCCN)C(=O)N[C@H](C(=O)N[C@@H](CC(C)C)C(=O)N[C@@H](CC(C)C)C(=O)N[C@@H](CCC(=O)O)C(=O)N[C@@H](CCC(N)=O)C(=O)N[C@@H](CCC(=O)O)C(=O)N[C@@H](CCCCN)C(=O)N[C@@H](CCC(N)=O)C(=O)N[C@@H](CCCCN)C(=O)N[C@@H](CCC(=O)O)C(=O)N[C@@H](CCC(N)=O)C(=O)N[C@@H](CCCNC(=N)N)C(=O)N[C@@H](CCC(=O)O)C(=O)N[C@@H](CCC(N)=O)C(=O)N[C@@H](C)C(=O)N[C@@H](CCC(=O)O)C(=O)N[C@H](C(=O)N[C@@H](CC(N)=O)C(=O)NC(C)(C)C(=O)N[C@@H](CCC(N)=O)C(=O)N[C@H](C(=O)N[C@@H](CC(C)C)C(=O)N[C@@H](C)C(=O)N[C@@H](CCC(N)=O)C(=O)N[C@H](C(N)=O)C(C)C)[C@@H](C)CC)[C@@H](C)O)[C@@H](C)CC)[C@@H](C)CC)C(C)C)C(C)C [compound 213] (Ac-IVLSLD[dV]PIKLK([γGlu-C20 diacid])KILLEQEKQKEQREQAETN[Aib]QILAQV-NH2) | −10 | −18 | −13 | >24
6 | 106 | 100 | 0.0/Not Tested % | 120 | 56 | 8 | > 250000 | 99 | 4880 | 9 |  |  |  |  | CC[C@H](C)[C@H](NC)C(=O)N[C@H](C(=O)N[C@@H](CC(C)C)C(=O)N[C@@H](CO)C(=O)N[C@@H](CC(C)C)C(=O)N[C@@H](CC(=O)O)C(=O)N[C@@H](C(=O)N1CCC[C@H]1C(=O)N[C@H](C(=O)N[C@@H](CCCCN)C(=O)N[C@@H](CC(C)C)C(=O)N[C@@H](CCCCNC(=O)COCCOCCNC(=O)CC[C@H](NC(=O)CCCCCCCCCCCCCCCCCCC(=O)O)C(=O)O)C(=O)N[C@@H](CCCCN)C(=O)N[C@H](C(=O)N[C@@H](CC(C)C)C(=O)N[C@@H](CC(C)C)C(=O)N[C@@H](CCC(=O)O)C(=O)N[C@@H](CCC(N)=O)C(=O)N[C@@H](CCC(=O)O)C(=O)N[C@@H](CCCCN)C(=O)N[C@@H](CCC(N)=O)C(=O)N[C@@H](CCCCN)C(=O)N[C@@H](CCC(=O)O)C(=O)N[C@@H](CCC(N)=O)C(=O)N[C@@H](CCCNC(=N)N)C(=O)N[C@@H](CCC(=O)O)C(=O)N[C@@H](CCC(N)=O)C(=O)N[C@@H](C)C(=O)N[C@@H](CCC(=O)O)C(=O)N[C@H](C(=O)N[C@@H](CC(N)=O)C(=O)NC(C)(C)C(=O)N[C@@H](CCC(N)=O)C(=O)N[C@H](C(=O)N[C@@H](CC(C)C)C(=O)N[C@@H](C)C(=O)N[C@@H](CCC(N)=O)C(=O)N[C@H](C(N)=O)C(C)C)[C@@H](C)CC)[C@@H](C)O)[C@@H](C)CC)[C@@H](C)CC)C(C)C)C(C)C [compound 233] (H-[NMeI]VLSLD[dV]PIKLK([AEEA-γGlu-C20 diacid])KILLEQEKQKEQREQAETN[Aib]QILAQV-NH2) | 1 | −8 | −11 | >24
7 | 84 | 83 | 0.0/Not Tested % | 410 | 60 | 6 | > 250000 | 86 | 4160 | 11 |  |  |  |  | CC[C@H](C)[C@H](NC)C(=O)N[C@H](C(=O)N[C@@H](CC(C)C)C(=O)N[C@@H](CO)C(=O)N[C@@H](CC(C)C)C(=O)N[C@@H](CC(=O)O)C(=O)N[C@@H](C(=O)N1CCC[C@H]1C(=O)N[C@H](C(=O)N[C@@H](CCCCN)C(=O)N[C@@H](CC(C)C)C(=O)N[C@@H](CCCCNC(=O)COCCOCCNC(=O)COCCOCCNC(=O)CC[C@H](NC(=O)CCCCCCCCCCCCCCCCCCC(=O)O)C(=O)O)C(=O)N[C@@H](CCCCN)C(=O)N[C@H](C(=O)N[C@@H](CC(C)C)C(=O)N[C@@H](CC(C)C)C(=O)N[C@@H](CCC(=O)O)C(=O)N[C@@H](CCC(N)=O)C(=O)N[C@@H](CCC(=O)O)C(=O)N[C@@H](CCCCN)C(=O)N[C@@H](CCC(N)=O)C(=O)N[C@@H](CCCCN)C(=O)N[C@@H](CCC(=O)O)C(=O)N[C@@H](CCC(N)=O)C(=O)N[C@@H](CCCNC(=N)N)C(=O)N[C@@H](CCC(=O)O)C(=O)N[C@@H](CCC(N)=O)C(=O)N[C@@H](C)C(=O)N[C@@H](CCC(=O)O)C(=O)N[C@H](C(=O)N[C@@H](CC(N)=O)C(=O)NC(C)(C)C(=O)N[C@@H](CCC(N)=O)C(=O)N[C@H](C(=O)N[C@@H](CC(C)C)C(=O)N[C@@H](C)C(=O)N[C@@H](CCC(N)=O)C(=O)N[C@H](C(N)=O)C(C)C)[C@@H](C)CC)[C@@H](C)O)[C@@H](C)CC)[C@@H](C)CC)C(C)C)C(C)C [compound 237] (H-[NMeI]VLSLD[dV]PIKLK([AEEA-AEEA-γGlu-C20 diacid])KILLEQEKQKEQREQAETN[Aib]QILAQV-NH2) |  |  |  | 
